What all share (type): cell-based
One experiment deals with Ps aeruginosa Dalgleish. Description: MIC, Ps aeruginosa Dalgleish. Conditions: Ps aeruginosa Dalgleish 10^-2.
The subject of a further experiment is P. mirabilis C 977. Description: MIC, P. mirabilis C 977. To be noted: Proteus mirabilis, C977.
The subject of the next experiment is Ps aeruginosa NCTC 10662. Put plainly: MIC, Ps aeruginosa NCTC 10662.
The subject of the next experiment is P. rettgeri. Put plainly: MIC, P. rettgeri. Conditions: Providencia rettgeri.
In a further experiment the test system is K. aerogenes A. Put plainly: MIC, K. aerogenes A. Conditions: Klebsiella aerogenes.
The test system of the next experiment is S. aureus Oxford. Put plainly: MIC, S. aureus Oxford. To be noted: Staphylococcus aureus.
A further experiment has as its system E. cloacae Nl. Put plainly: MIC, E. cloacae Nl. To be noted: Enterobacter cloacae.
The next experiment concerns B. subtilis. Description: MIC, B. subtilis. Conditions: Bacillus subtilis.
A further experiment has as its system S. faecalis I. Description: MIC, S. faecalis I. To be noted: Enterococcus faecalis.
A further experiment relates to E. coli JT 4. Description: MIC, E. coli JT 4. To be noted: Escherichia coli, JT4.
A further experiment concerns S. pyogenes CN 10. Put plainly: MIC, S. pyogenes CN 10. To be noted: Streptococcus pyogenes, CN10.
Another experiment has as its system E. coli JT 425. Put plainly: MIC, E. coli JT 425. Conditions: Escherichia coli, JT425.
In another experiment the test system is E. coli NCTC 10418. Description: MIC, E. coli NCTC 10418. To be noted: Escherichia coli, NCTC10418.
For another experiment, the system named is S. aureus Russell. Put plainly: MIC, S. aureus Russell. Conditions: Staphylococcus aureus.
The subject of a further experiment is P. morganii. Put plainly: MIC, P. morganii. Conditions: Morganella morganii.
For the next experiment, the system named is P. mirabilis 889. Put plainly: MIC, P. mirabilis 889. To be noted: Proteus mirabilis.
For another experiment, the system named is S. marcescens US 32. Put plainly: MIC, S. marcescens US 32. Conditions: Serratia marcescens, US32.
The next experiment has as its system N. catarrhalis 1502. Description: MIC, N. catarrhalis 1502.
The subject of the next experiment is E. coli ESS. Description: MIC, E. coli ESS. Conditions: Escherichia coli.
[1] abbreviates: Ps aeruginosa NCTC 10662, read-out: MIC.

Each structure is given as a SMILES string. In brackets after ≈: the same amount, converted by molar mass. Where two headings read alike, the source gives them in different places.

From US4394375A, “Cephalosporin derivatives, and compositions containing them” (Beecham Group Limited, priority 1980, dated 1983) come the findings set out here.

In general, MIC refers to the lowest concentration found to suppress growth.

With `CCN1CCN(C(=O)N[C@@H](C(=O)N[C@]2(CO)C(=O)N3C(C(=O)O)=C(COC(C)=O)CS[C@@H]32)c2ccccc2)C(=O)C1=O` [Example 1d, Sodium 7β-[2(4-ethyl-2,3-dioxpiperazine-1-carbonylamino)]phenylacetamido-7α-hydroxymethylcephalosporanate], the MIC is over 100 µg/mL in the experiment on Ps aeruginosa Dalgleish; 2.5 µg/mL with P. mirabilis C 977; over 100 µg/mL with Ps aeruginosa NCTC 10662 (Ps aeruginosa NCTC 10662 10^-2); over 100 µg/mL in the experiment with Ps aeruginosa NCTC 10662 (setting [1]); 10 µg/mL with P. rettgeri; 0.5 µg/mL against K. aerogenes A. Moreover, the minimal inhibitory concentration (MIC) in the experiment with S. aureus Oxford is over 100 µg/mL; in the experiment on E. cloacae Nl, 10 µg/mL; against B. subtilis it was over 100 µg/mL; against S. faecalis I, over 100 µg/mL; against E. coli JT 4 it was 5 µg/mL; against S. pyogenes CN 10, 100 µg/mL. Besides, the MIC against E. coli JT 425 is 2.5 µg/mL; against E. coli NCTC 10418, 2.5 µg/mL; in the experiment with S. aureus Russell it was over 100 µg/mL; against P. morganii it was 10 µg/mL; against P. mirabilis 889 it was 1 µg/mL; in the experiment with S. marcescens US 32 it was 5 µg/mL. The figures for the MIC in the experiment with N. catarrhalis 1502 and against E. coli ESS were 0.2 µg/mL and under 0.02 µg/mL, respectively.

As to `CCN1CCN(C(=O)N[C@@H](C(=O)N[C@]2(CO)C(=O)N3C(C(=O)O)=C(COC(C)=O)CS[C@@H]32)c2ccc(O)cc2)C(=O)C1=O` [Example 3b, Sodium 7β-[2-(4-ethyl-2,3-dioxopiperazine-1-carbonylamino)-2-(4-hydroxyphenyl)acetamido]-7α-hydroxymethylcephalosporanate], the MIC against Ps aeruginosa Dalgleish was 25 µg/mL; against P. mirabilis C 977, 2.5 µg/mL; in the experiment with Ps aeruginosa NCTC 10662 (Ps aeruginosa NCTC 10662 10^-2) it was 50 µg/mL; in the experiment on Ps aeruginosa NCTC 10662 (setting [1]) it was 50 µg/mL; against P. rettgeri it was 10 µg/mL; in the experiment with K. aerogenes A, 0.25 µg/mL. Also, the MIC is over 100 µg/mL with S. aureus Oxford; 10 µg/mL against E. cloacae Nl; over 100 µg/mL in the experiment on B. subtilis; over 100 µg/mL with S. faecalis I; 2.5 µg/mL against E. coli JT 4; over 100 µg/mL with S. pyogenes CN 10. Also, the MIC in the experiment on E. coli JT 425 was 1 µg/mL; against E. coli NCTC 10418, 1 µg/mL; against S. aureus Russell, over 100 µg/mL; in the experiment on P. morganii, 10 µg/mL; with P. mirabilis 889, 0.5 µg/mL; in the experiment on S. marcescens US 32 it was 5 µg/mL. The figures for the MIC with N. catarrhalis 1502 and against E. coli ESS were 0.5 µg/mL and 0.05 µg/mL, respectively.

On to `CCN1CCN(C(=O)N[C@@H](C(=O)N[C@]2(CO)C(=O)N3C(C(=O)O)=C(CSc4nnnn4C)CS[C@@H]32)c2ccccc2)C(=O)C1=O` [Example 4, 7β-[2(4-Ethyl-2,3-dioxopiperazine-1-carbonylamino)-2-phenylacetamido]-7α-hydroxymethyl-3-(1-methyl-1H-tetrazol-5-ylthio)methylceph-3-em-4-carboxylic acid], for which the MIC with Ps aeruginosa Dalgleish is 100 µg/mL (≈ 152 µM); with P. mirabilis C 977 it was 5 µg/mL (≈ 7.58 µM); in the experiment on Ps aeruginosa NCTC 10662 (Ps aeruginosa NCTC 10662 10^-2), over 100 µg/mL; in the experiment on Ps aeruginosa NCTC 10662 (setting [1]), over 100 µg/mL; with P. rettgeri, 25 µg/mL (≈ 37.9 µM); in the experiment on K. aerogenes A, 0.2 µg/mL (≈ 0.303 µM). The MIC in the experiment on E. cloacae Nl came to 25 µg/mL (≈ 37.9 µM); in the experiment on E. coli JT 4 it was 5 µg/mL (≈ 7.58 µM); against E. coli JT 425, 1 µg/mL (≈ 1.52 µM); in the experiment on E. coli NCTC 10418, 1 µg/mL (≈ 1.52 µM); in the experiment on P. morganii, 10 µg/mL (≈ 15.2 µM); with P. mirabilis 889, 2.5 µg/mL (≈ 3.79 µM). Further, the MIC against S. marcescens US 32 was 5 µg/mL (≈ 7.58 µM); against E. coli ESS it was under 0.02 µg/mL.
